Experiment [1] concerns the target T1, phenylalanine ammonia-lyase (PAL) (Rhodotorula mucilaginosa, UniProt P10248).
T1 construct: endogenous in cells; host or cells: Rhodotorula rubra cells (aerobic fermentation, whole cells harvested by centrifugation)
T1 sequence (P10248 1-713): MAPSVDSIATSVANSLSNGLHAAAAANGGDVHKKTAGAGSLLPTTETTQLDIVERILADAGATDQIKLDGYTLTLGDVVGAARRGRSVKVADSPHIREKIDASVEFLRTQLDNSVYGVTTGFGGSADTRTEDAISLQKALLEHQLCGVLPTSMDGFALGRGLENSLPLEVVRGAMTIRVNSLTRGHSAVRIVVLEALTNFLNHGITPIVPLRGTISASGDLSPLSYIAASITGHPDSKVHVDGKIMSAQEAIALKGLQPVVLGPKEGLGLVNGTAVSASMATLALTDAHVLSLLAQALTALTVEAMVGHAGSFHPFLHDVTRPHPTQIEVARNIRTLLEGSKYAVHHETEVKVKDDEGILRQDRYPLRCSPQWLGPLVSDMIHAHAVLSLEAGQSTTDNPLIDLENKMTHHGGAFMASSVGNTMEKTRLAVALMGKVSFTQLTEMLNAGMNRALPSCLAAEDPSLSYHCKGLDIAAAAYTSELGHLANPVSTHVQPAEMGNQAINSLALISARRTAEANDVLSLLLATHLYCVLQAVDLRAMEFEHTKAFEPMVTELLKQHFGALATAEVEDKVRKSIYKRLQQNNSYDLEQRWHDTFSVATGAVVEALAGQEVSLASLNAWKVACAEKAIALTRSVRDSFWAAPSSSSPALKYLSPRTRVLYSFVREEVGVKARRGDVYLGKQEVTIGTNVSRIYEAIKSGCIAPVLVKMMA
In words: Example 2: bioreaction in ammonium carbonate or ammonium sulfate substrate solution with 2-mercaptoethanol. The experiment is classed as biochemical, Rhodotorula rubra. The following applies: 600 mg/l 2-mercaptoethanol, after 15 hours. Here is the method: Four 14 liter vessels were each filled with 13 liters of substrate solution. In two of the vessels, the substrate solution contained: ammonia, 5 mole/liter; ammonium carbonate, 120 gram/liter; and trans-cinnamic acid, 10 gram/liter. The other two vessels contained a substrate solution composed of: ammonia, 4.2 mole/liter; ammonium sulfate, 75 gram/liter; and trans-cinnamic acid, 10 gram/liter. The pH in all four vessels was 10.5, and the temperature was maintained at 35° C. All four vessels were de-aerated by sparging with nitrogen gas. Finally, one vessel of each pair had 600 mg/liter of 2-mercaptoethanol added. The reaction was started by adding PAL-containing microbial cells to each of the four vessels in the amount of 1.7 gram (dry basis) per liter. (The microbial cells were produced by the method of Example 1.) The vessels were agitated for one minute every three hours. Supplemental trans-cinnamic acid was added to all four vessels in the amount of 2.5 gram/liter at 3, 6, 9, and 12 hours after the addition of cells. After 15 hours, the concentration of L-phenylalanine in the reaction mixtures was measured, and the PAL activity of the cells was determined.

The target in experiment [2] is T1, phenylalanine ammonia-lyase (PAL). The experiment is described as follows: Example 1: L-phenylalanine bioreaction with PAL-containing cells, 2-mercaptoethanol at 100, 500 and 1000 mg/liter. The experiment is classed as biochemical, Rhodotorula rubra. The following applies: after 15 hours, 35° C., pH 10.5; for L-Phenylalanine Produced: ammonium sulfate. The source says:
Microbial cells containing a high level of activity of phenylalanine ammonia-lyase (PAL) were produced by aerobic fermentation. A 14 liter fermentor containing 10 liters of nutrient medium was inoculated with a seed culture of Rhodotorula rubra. The nutrient medium consisted of: soy peptone 2.7%; casein hydrolysate (Sheffield NZ-Amine) 1.35%; and corn steep liquor 0.18%. The fermentor contents were aerated and agitated, and the pH was maintained at 6.0 by periodic additions of ammonia water or sulfuric acid. During the fermentation, the PAL activity of the cells was monitored, and when the PAL activity reached a maximum (approximately 22 hours after inoculation), the fermentation was stopped by shutting off the aeration and agitation. The vessel was de-aerated by sparging with nitrogen gas. The microbial cells were separated from the fermentation broth by centrifugation, and stored at 4° C. Four 14 liter vessels were each filled with 13 liters of a substrate solution containing: ammonia, 4 mole/liter; ammonium sulfate, 100 gram/liter; and trans-cinnamic acid, 10 gram/liter. The pH of the solution was 10.5, and the temperature was maintained at 35° C. The vessels were deaerated by sparging with nitrogen gas, and 2-mercaptoethanol was added to three of the vessels in amounts of 100, 500, and 1000 mg/liter. PAL-containing microbial cells were then added to all four vessels in the amount of 1.35 gram (dry basis) per liter. The vessels were agitated for one minute every three hours. Supplemental trans-cinnamic acid was added to the vessels in the amount of 2.5 gram/liter at 3, 6, 9, and 12 hours after the addition of cells. After 15 hours, the concentration of L-phenylalanine in the reaction mixture was measured, and the PAL activity of the cells was determined. The results, which are shown in Table I, indicate that the stability of PAL was enhanced by the reducing agent, with the result that a greater quantity of L-phenylanine was produced. The optimum concentration for 2-mercaptoethanol is between 100 and 1000 mg/liter.

The target is the same in experiment [3]. In words: Example 3: optimum concentration of 2-mercaptoethanol, five vessels. The format is biochemical, Rhodotorula rubra. The following applies: for L-Phenylalanine Produced / PAL Activity (% of Activity): after 24 hours. Here is the method:
The optimum concentration of 2-mercaptoethanol was determined by carrying out reactions in five vessels with varying concentrations of 2-mercaptoethanol. The procedures used were the same as those described in Examples 1 and 2, with the following modifications. The nutrient medium for the fermentation was composed of: yeast extract (Amber Laboratories, Amberex 1003) 1.35%; corn steep liquor 0.18%; and L-phenylalanine 2.7%. The substrate solution for L-phenylalanine production contained: ammonia 5.1 mole/liter; ammonium sulfate 120 gram/liter; and cinnamic acid 10 gram/liter, with 2.5 gram/liter added at 3, 6, 9, and 12 hours after the addition of cells. The quantity of cells added to each of the vessels was 1.6 gram (dry basis) per liter. After 24 hours, the L-phenylalanine concentration in the reaction mixture was measured, and the PAL activity of the cells was determined.

Experiment [4] shares this target. In words: Example 4: 300 gallon reactor bioreaction with 2-mercaptoethanol. The experiment is classed as biochemical, Rhodotorula rubra. Particulars: 404 ml 2-mercaptoethanol in 900 liters substrate solution, after 53.5 hours, 30° C. Here is the method:
PAL-containing microbial cells were cultivated in three 250-liter fermentors, each containing 163 liters of nutrient medium. The medium was composed of: yeast extract (Amber Laboratories, Amberex 1003) 1.38%; beet molasses 4%; diammonium phosphate 0.18%; and L-phenylalanine 0.92%. The fermentor was inoculated with a shake flask culture of Rhodotorula rubra. The fermentation was carried out at 30° C. with aeration and agitation. The pH was maintained at 6.0 by periodic additions of ammonia water or sulfuric acid. During the fermentation, the PAL activity of the microbial cells was monitored, and when the PAL activity reached a maximum, at 28-30 hours after inoculation, the fermentations were stopped by shutting off the aeration and agitation. The vessels were de-aerated by sparging with nitrogen gas. Microbial cells were harvested by means of a Westfalia disc-bowl centrifuge. The combined yield of cells from all three fermentators was 5.04 kg (dry basis). Substrate solution for L-phenylalanine production was prepared as follows. […] The trans-cinnamic acid concentration in the reaction mixture was monitored at intervals of approximately two hours, and supplemental trans-cinnamic acid was added whenever necessary, to maintain a concentration of between 10 and 18 gram/liter. […]

A further experiment deals with PAL. The following applies: cited from earlier work.

SMILES strings stand for the structures.

Take `OCCS` [2-mercaptoethanol]: the “L-Phenylalanine Produced” value was found to be 12.9 gm/l in experiment [1] (ammonium carbonate); 10.8 gm/l in experiment [1] (ammonium sulfate); 7.34 gm/l in experiment [2] (100 mg/l 2-mercaptoethanol); 9.26 gm/l in experiment [2] (500 mg/l 2-mercaptoethanol); 8.54 gm/l in experiment [2] (1,000 mg/l 2-mercaptoethanol); 12.6 gram/l in experiment [3] (300 mg/l 2-mercaptoethanol). Besides, the “L-Phenylalanine Produced” value in experiment [3] (400 mg/l 2-mercaptoethanol) is 14.6 gram/l; in experiment [3] (500 mg/l 2-mercaptoethanol) it was 15.4 gram/l; in experiment [3] (600 mg/l 2-mercaptoethanol) it was 14.8 gram/l; in experiment [3] (800 mg/l 2-mercaptoethanol), 14.6 gram/l. Further, the “PAL Activity (% of Initial)” value was 46.6 % of Initial in experiment [1] (ammonium carbonate) and 38.7 % of Initial in experiment [1] (ammonium sulfate). Also, the “PAL Activty (% of Initial)” value in experiment [2] (100 mg/l 2-mercaptoethanol) is recorded as 31.2 % of Initial; in experiment [2] (500 mg/l 2-mercaptoethanol), 39.4 % of Initial; in experiment [2] (1,000 mg/l 2-mercaptoethanol) it was 35.9 % of Initial. The “PAL Activity (% of Activity)” value in experiment [3] (300 mg/l 2-mercaptoethanol) was 27.5 % of Activity; in experiment [3] (400 mg/l 2-mercaptoethanol), 32.4 % of Activity; in experiment [3] (500 mg/l 2-mercaptoethanol), 34.2 % of Activity; in experiment [3] (600 mg/l 2-mercaptoethanol), 32.7 % of Activity; in experiment [3] (800 mg/l 2-mercaptoethanol), 31.7 % of Activity. In experiment [3] (Example 3 conditions), the “optimum concentration of 2-mercaptoethanol” value is “approximately 500 mg/liter”. The “PAL activity of the cells in the reactor, of the initial activity” value in experiment [4] was 27%. Moreover, the “L-phenylalanine in the reaction mixture” value in experiment [4] (ammonium carbonate) is given as 33.3 gram/liter.
Turning to `CC[C@H](C)[C@H](N)C(=O)O` [L-isoleucine, reference compound], the “effect on PAL stability” value in the experiment with PAL (extended the useful period of activity of the enzyme) is on record as “stabilizing effect”.
As to `O=C(O)/C=C/c1ccccc1` [t-cinnamic acid], the “rate of conversion of L-phenylalanine relative to the maximum rate” value in the experiment with PAL (t-cinnamic acid 150 mM (substrate inhibition)) was “one-half”.

Values taken from patent publication US4574117A, “Stabilization of phenylalanine ammonia-lyase in a bioreactor using reducing agents” (Genex Corporation, priority 1984, dated 1986).
